Assay results from patent US20230035403A1, “Method For Determining Responsiveness To Prostate Cancer Treatment” (Janssen Biotech, Inc., priority 2020, published 2023).

System: CD8+ T cells in PBMCs from patients with metastatic castrate-resistant prostate cancer
Assay: Patient PBMC restimulation assay (in vitro immunogenicity of neoantigens)
Assay type: cell-based, human
Conditions: for Immunogenic: Patient PBMC restimulation, TNFα and IFNγ production by CD8+ T cells; for Maximum fold change over negative control: TNFα+IFNγ+CD8+ T cells, highest fold change across the PBMC donors evaluated, 9 mer peptide; for Maximum frequency of TNFα^+IFNγ^+CD8^+ T cells (Percent): greatest frequency among all tested PBMC donors, negative control 0.011-0.8 depending on patient
In short: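 PBMCs from metastatic castrate-resistant prostate cancer patients were stimulated with 9-mer neoantigen peptides (5 μg/mL final) plus IL-15 for 13 days, with IL-2 added during culture, and restimulated on day 12. Live CD3+CD8+ TNFα+/IFNγ+ frequency was measured by flow cytometry. A response was positive at ≥2-fold over the DMSO control.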

| Sequence | Immunogenic | Maximum fold change over negative control | Maximum frequency of TNFα^+IFNγ^+CD8^+ T cells (Percent) |
| --- | --- | --- | --- |
| SLYHREKQLIAMDSAI [Neoantigen P22] | Yes | 5.00 | 0.120% |
| YEAGMTLGEKFRVGNCKHLKMTRP [Neoantigen P82] | Yes | 3.46 | 0.970% |
| YEAGMTLGGKILFFLFLLLPLSPFSLIF [Neoantigen P87] | Yes | 3.24 | 0.120% |
